In ChEMBL document CHEMBL5331054, “Antibacterial quaternary ammonium agents: Chemical diversity and biological mechanism” (Eur J Med Chem, 2022):

Experiments:
[1] = system: Pseudomonas aeruginosa; test: Antibacterial activity against Pseudomonas aeruginosa assessed as inhibition of bacterial cell growth; type: functional
[2] = system: Enterococcus faecalis; test: Antibacterial activity against Enterococcus faecalis assessed as reduction in bacterial cell growth; type: functional
[3] = system: Staphylococcus aureus; test: Antibacterial activity against methicillin-resistant Staphylococcus aureus assessed as bacterial growth inhibition; type: functional
[4] = system: Staphylococcus aureus; test: Antimicrobial activity against Staphylococcus aureus assessed as reduction in bacterial growth; type: functional
[5] = system: Escherichia coli; test: Antibacterial activity against Escherichia coli assessed as reduction bacterial cell growth; type: functional
[6] = system: Klebsiella pneumoniae; test: Antibacterial activity against Klebsiella pneumoniae assessed as reduction in bacterial growth; type: functional
[7] = system: Acinetobacter baumannii; test: Antibacterial activity against Acinetobacter baumannii assessed as inhibition of bacterial cell growth; type: functional
[8] = system: Pseudomonas aeruginosa; test: Antibacterial activity against Pseudomonas aeruginosa assessed as reduction in bacterial cell growth; type: functional
[9] = system: Stenotrophomonas maltophilia; test: Antibacterial activity against Stenotrophomonas maltophilia assessed as inhibition of bacterial growth; type: functional
[10] = system: Escherichia coli; test: Antibacterial activity against Escherichia coli assessed as bacterial growth inhibition incubated for 72 hrs by microdilution method; type: functional
[11] = system: Pseudomonas aeruginosa; test: Antibacterial activity against Pseudomonas aeruginosa assessed as bacterial growth inhibition incubated for 72 hrs by microdilution method; type: functional
[12] = system: Staphylococcus aureus; test: Antibacterial activity against Staphylococcus aureus assessed as bacterial growth inhibition incubated for 72 hrs by microdilution assay; type: functional, organism-based; conditions: for MIC: Staphylococcus aureus, time 72 hrs
[13] = system: Enterococcus faecalis; test: Antibacterial activity against Enterococcus faecalis assessed as bacterial growth inhibition incubated for 72 hrs by microdilution method; type: functional
[14] = system: Streptococcus pyogenes; test: Antibacterial activity against Streptococcus pyogenes ATCC 19615 assessed as reduction in bacterial growth incubated for 18 hrs by micro-broth dilution assay; type: functional
[15] = system: Pseudomonas aeruginosa; test: Antibiofilm activity against Pseudomonas aeruginosa assessed as reduction in bacterial growth by crystal violet based staining assay; type: functional
[16] = system: Staphylococcus aureus; test: Antibiofilm activity against Staphylococcus aureus assessed as reduction in bacterial growth by crystal violet based staining assay; type: functional
[17] = system: Enterococcus faecalis; test: Antibiofilm activity against Enterococcus faecalis assessed as reduction in bacterial growth by crystal violet based staining assay; type: functional
[18] = system: Escherichia coli; test: Antibiofilm activity against Escherichia coli assessed as reduction in bacterial growth by crystal violet based staining assay; type: functional
[19] = system: Staphylococcus aureus; test: Antibacterial activity against Staphylococcus aureus assessed as bacterial growth inhibition; type: functional
[20] = system: Staphylococcus aureus; test: Antibacterial activity against Staphylococcus aureus NBRC 12732 assessed as reduction in bacterial growth by CLSI based broth microdilution method; type: functional
[21] = system: Vibrio parahaemolyticus; test: Antibacterial activity against Vibrio parahaemolyticus ATCC 17802 assessed as reduction in bacterial growth incubated for 24 hrs by micro-dilution method; type: functional
[22] = system: Staphylococcus aureus; test: Antibacterial activity against Staphylococcus aureus ATCC 4163 assessed as reduction in bacterial growth incubated for 24 hrs by micro-dilution method; type: functional
[23] = system: Pseudomonas aeruginosa; test: Antibacterial activity against Pseudomonas aeruginosa NCTC 6749 assessed as reduction in bacterial growth incubated for 24 hrs by micro-dilution method; type: functional
[24] = system: Escherichia coli; test: Antibacterial activity against Escherichia coli ATCC 25922 assessed as reduction in bacterial growth incubated for 24 hrs by micro-dilution method; type: functional
[25] = system: Staphylococcus aureus; test: Antibacterial activity against Staphylococcus aureus assessed as bacterial growth inhibition measured after 24 hrs by micro-broth dilution method; type: functional
[26] = system: Staphylococcus aureus; test: Antibacterial activity against methicillin-resistant Staphylococcus aureus assessed as log reduction in bacterial load measured after 60 mins; type: functional; conditions: 1 h
[27] = system: Bacillus cereus; test: Antibacterial activity against Bacillus cereus assessed as reduction in microbial growth after 18 hrs by MTT based broth dilution method; type: functional
[28] = system: Staphylococcus aureus; test: Antibacterial activity against methicillin-sensitive Staphylococcus aureus assessed as reduction microbial growth; type: functional
[29] = system: Staphylococcus aureus; test: Antibacterial activity against Staphylococcus aureus ATCC 25923 assessed as bacterial growth inhibition incubated for 24 hrs by microdilution method; type: functional
[30] = system: Staphylococcus epidermidis; test: Antibacterial activity against Staphylococcus epidermidis ATCC 12228 assessed as bacterial growth inhibition incubated for 24 hrs by microdilution method; type: functional
[31] = system: Staphylococcus aureus; test: Antibacterial activity against Staphylococcus aureus ATCC 29213 assessed as bacterial growth inhibition incubated for 24 hrs by broth dilution method; type: functional
[32] = system: Staphylococcus aureus; test: Antibacterial activity against Staphylococcus aureus CCM 451608 assessed as reduction in bacterial growth inhibition incubated for 24 hrs by microbroth dilution method; type: functional
[33] = system: Staphylococcus aureus; test: Antibacterial activity against Staphylococcus aureus CCM 451608 assessed as reduction in bacterial growth inhibition incubated for 48 hrs by microbroth dilution method; type: functional
[34] = system: Mycobacterium tuberculosis; test: Antibacterial activity against Mycobacterium tuberculosis Erdman assessed as bacterial growth inhibition; type: functional
[35] = system: Mycobacterium tuberculosis; test: Antimycobacterial activity against Mycobacterium tuberculosis assessed as reduction in mycobacterial growth; type: functional
[36] = Escherichia coli, 72 h, read-out: MIC
[37] = Pseudomonas aeruginosa, 72 h, read-out: MIC

CCCCCCCCCC[n+]1cccc(CN(Cc2ccc[n+](CCCCCCCCCC)c2)Cc2ccc[n+](CCCCCCCCCC)c2)c1
MIC [1]: 2 µM
MIC [2]: 1 µM
MIC [3]: 0.5 µM
MIC [4]: 0.5 µM
MIC [5]: 1 µM

CCCCCCCCCCCCCCCCCC[N+](CC)(CC)c1ccc(C(c2ccc([N+](C)(CC)CC)cc2)c2ccc([N+](C)(CC)CC)cc2)cc1
MIC [1]: 8 µM
MIC [2]: 1 µM
MIC [3]: 0.5 µM
MIC [4]: 1 µM
MIC [5]: 1 µM

CCCCCCCCC[n+]1ccc(Oc2ccc(-c3ccc(Oc4cc[n+](CCCCCCCCC)cc4)cc3)cc2)cc1.[Br-].[Br-]
MIC [6]: < 0.25 µg/mL
MIC [3]: < 0.25 µg/mL
MIC [7]: < 0.25 µg/mL
MIC [8]: < 0.25 µg/mL
MIC [5]: < 0.25 µg/mL

CCCCCCCCCCCC[N+](C)(C)CCOc1ccc(OCC[N+](C)(C)CCCCCCCCCCCC)cc1.[Br-].[Br-]
MIC [2]: 1 µg/mL
MIC [4]: 1 µg/mL
MIC [9]: 2 µg/mL

CCCCCCCCCCCCOC(=O)C[N+](C)(C)CCC[N+](C)(C)CC(=O)OCCCCCCCCCCCC.[Cl-].[Cl-]
MIC [10]: 200 µM
MIC [11]: 40 µM
IC50 [12]: 120 µM

CCCCCCCCCCCC[N+](C)(C)CCC[N+](C)(C)CCCCCCCCCCCC
MIC [10, 36]: 1 µM
MIC [13]: 1 µM
MIC [11, 37]: 4 µM
MIC [12]: 2 µM

CCCCCCCCCCCCCCC[n+]1ccn(Cc2ccccc2)c1.[Br-]
MIC [14]: 0.03 µg/mL

CCCCCCCCCCCC[N+](C)(C)CC[N+](C)(C)CC[N+](C)(C)CCCCCCCCCCCC
MIC [15]: 1 µM
MIC [16]: < 0.25 µM
MIC [17]: < 0.25 µM
MIC [18]: 0.5 µM

CCCCCCCCS(=O)(=O)Nc1ccc(-c2ccc(Cl)cc2)cc1C(=O)C(=O)NCCC[N+](C)(C)C.[I-]
MIC [19]: 8 µg/mL

C[N+](CCO)(CCO)CCCCCCCCCCCCSc1nnc(-c2ccccc2)o1.[Br-]
MIC [20]: 6.25 µg/mL

CCCCCCCCCCCC[N+](C)(C)CCNC(=O)C12CC3CC(C1)CC(C(=O)NCC[N+](C)(C)CCCCCCCCCCCC)(C3)C2
MIC [21]: 0.1 µM
MIC [22]: 2.3 µM
MIC [23]: 2.3 µM
MIC [24]: 9.4 µM

CCCCCCCCS(=O)(=O)Nc1ccc(-c2ccc(-c3ccccc3)cc2)cc1C(=O)C(=O)NCCC[N+](C)(C)C
MIC [25]: 4 µM

CCCCCCCCCCCCCCCC[N+](C)(C)c1ccc(C(c2ccccc2)c2ccc([N+](C)(C)C)cc2)cc1.[I-].[I-] (stereo not given)
MIC [3]: < 0.25 µg/mL

CC1(C)C(=O)N(CCC[N+](C)(C)CC[N+](C)(C)C)C(=O)N1Cl.[Cl-].[Cl-]
log(activity) [26]: 2.36

CCCCCCCC[N+](C)(C)CC(=O)Nc1ccc(C(=O)/C=C/c2ccccc2F)cc1
MIC [27]: 2 µM

C[N+](C)(C)CC[N+](C)(C)C
MIC [10, 36]: > 500 µM
MIC [13]: > 500 µM
MIC [11, 37]: > 500 µM
MIC [12]: > 500 µM

CCCCCCCCCCCC[N+](C)(C)CCC[N+](C)(C)CCC[N+](C)(C)CCCCCCCCCCCC
MIC [28]: 0.5 µM

C[N+](C)(C)CCCCC[N+](C)(C)C [PENTAMETHONIUM BROMIDE]
MIC [10, 36]: > 500 µM
MIC [13]: > 500 µM
MIC [11, 37]: > 500 µM
MIC [12]: > 500 µM

CCCCCCCCCCCCCCOC(=O)[C@H](Cc1ccccc1)[N+](C)(CC)CC
MIC [29]: 3.6 µM
MIC [27]: 5.4 µM
MIC [30]: 4.5 µM

CCCCCCCCCCCCOC(=O)C[N+](C)(C)CCC[N+](C)(C)CC(=O)OCCCCCCCCCCCC.[Br-].[Br-]
MIC [10]: 20 µM
MIC [11]: 300 µM
IC50 [12]: 20 µM

CCCC1OCc2c(CO)c(C[N+](C)(C/C=C/C#CC(C)(C)C)Cc3cccc4ccccc34)nc(C)c2O1.[Br-] (stereo not given)
MIC [31]: 4 µg/mL

CCCCCCCCCCCCCCCC[n+]1ccc(C=NO)cc1
MIC [32]: 0.98 µM
MIC [33]: 0.98 µM

CCCCCCc1ccc[n+](CCOC2C3CC4CC(C3)CC2C4)c1.CS(=O)(=O)[O-] (stereo not given)
MIC [34]: 1.6 µg/mL
MIC [35]: 3.1 µg/mL
